Assay: mn = molality of the nth substance listed, in mol/kg
Details: 101.3 kPa, Liquid; for viscosity: Capillary tube (Ostwald / Ubbelohde) method; for mass density: Pycnometric method

Cc1ncc(C[n+]2csc(CCO)c2C)c(N)n1.Cl.[Cl-] [thiamine hydrochloride] + O
Details | mass density [kg/m3] | viscosity [mPa·s]
275.15 K, m1 = 0.0101 | 1001.03 | 1.692
275.15 K, m1 = 0.0201 | 1002.1 | 1.7
275.15 K, m1 = 0.0249 | 1002.6 | 1.712
275.15 K, m1 = 0.0302 | 1003.15 | 1.718
275.15 K, m1 = 0.04 | 1004.19 | 1.728
275.15 K, m1 = 0.0451 | 1004.73 | 1.736
275.15 K, m1 = 0.0499 | 1005.24 | 1.745
275.15 K, m1 = 0.055 | 1005.78 | 1.752
275.15 K, m1 = 0.0611 | 1006.45 | 1.759
275.15 K, m1 = 0.0645 | 1006.81 | 1.76
275.15 K, m1 = 0.0701 | 1007.4 | 1.771
275.15 K, m1 = 0.0751 | 1007.91 | 1.776
275.15 K, m1 = 0.0792 | 1008.33 | 1.776
275.15 K, m1 = 0.0897 | 1009.33 | 1.788
275.15 K, m1 = 0.1001 | 1010.2 | 1.8
277.15 K, m1 = 0.0101 | 1001.04 | 1.575
277.15 K, m1 = 0.0201 | 1002.1 | 1.591
277.15 K, m1 = 0.025 | 1002.61 | 1.593
277.15 K, m1 = 0.0299 | 1003.12 | 1.604
277.15 K, m1 = 0.0401 | 1004.18 | 1.61
277.15 K, m1 = 0.0452 | 1004.7 | 1.621
277.15 K, m1 = 0.0501 | 1005.2 | 1.627
277.15 K, m1 = 0.055 | 1005.69 | 1.632
277.15 K, m1 = 0.0598 | 1006.18 | 1.64
277.15 K, m1 = 0.0653 | 1006.74 | 1.646
277.15 K, m1 = 0.0704 | 1007.25 | 1.66
277.15 K, m1 = 0.0803 | 1008.25 | 1.672
277.15 K, m1 = 0.0822 | 1008.45 | 1.671
277.15 K, m1 = 0.0898 | 1009.24 | 1.678
279.15 K, m1 = 0.008 | 1000.76 | 1.481
279.15 K, m1 = 0.02 | 1002 | 1.494
279.15 K, m1 = 0.0249 | 1002.52 | 1.497
279.15 K, m1 = 0.0301 | 1003.05 | 1.505
279.15 K, m1 = 0.04 | 1004.08 | 1.512
279.15 K, m1 = 0.045 | 1004.59 | 1.517
279.15 K, m1 = 0.0501 | 1005.11 | 1.521
279.15 K, m1 = 0.0552 | 1005.63 | 1.527
279.15 K, m1 = 0.0603 | 1006.15 | 1.529
279.15 K, m1 = 0.0652 | 1006.65 | 1.542
279.15 K, m1 = 0.0703 | 1007.16 | 1.549
279.15 K, m1 = 0.0751 | 1007.64 | 1.556
279.15 K, m1 = 0.0798 | 1008.1 | 1.563
279.15 K, m1 = 0.0897 | 1009.09 | 1.57
279.15 K, m1 = 0.1001 | 1010.12 | 1.581

— the NIST ThermoML archive (doi:10.1016/j.jct.2016.12.033)
